# Experimental data published in article PMC8838415, “Discovery of Novel Pleuromutilin Derivatives as Potent Antibacterial Agents for the Treatment of MRSA Infection” (Molecules, 2022).
# How the values were obtained:
# [1] = tested on: S. aureus (ATCC 29213); assay: MIC and MBC, broth dilution, S. aureus ATCC 29213; assay type: cell-based; conditions: Staphylococcus aureus, ATCC29213
# Outline: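 Compounds, in 2.5% tween-80/2.5% DMSO, serially diluted in MH broth over 32–0.01 µg/mL with 5 × 10^5 CFU/mL inoculum, triplicates, 22–26 h at 37 °C; MIC = lowest concentration with no visible growth. MBC from plating non-turbid wells on MH agar, further 22–26 h at 37 °C.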
# [2] = tested on: MRSA; assay: Neutropenic murine thigh infection model; assay type: in vivo, mice
# Experimental: The neutropenic murine thigh infection model experiment was performed as described in the literature. Six-week-old SPF-ICR female mice weighing 24–28 g were used for this study. The mice were injected with cyclophosphamide (Mead Johnson Pharmaceuticals, Evansville, Indiana—IN, USA) at a dose of 150 mg/kg 4 days and at a dose of 100 mg/kg 1 day before the experiment to reduce neutrophils and achieve immunosuppression (<0.1 × 10^9/L). A total of 0.1 mL MH broth (MRSA concentration approximately 10^7 CFU/mL) was injected into the posterior thigh of mice to establish the infection model. After the thighs of the mice were infected for 2 h, these mice were randomly divided into 3 groups (3 per group). […] A total of 24 h after the completion of the drug, the mice were euthanized and their thigh tissues were collected. Then, their thigh tissues were weighed and homogenized, respectively, in 3 mL of iced sterile saline. Tissue homogenate was serially diluted 10-fold and plated on MH agar. The resulting bacterial colonies were determined after incubation for 24 h.
# [3] = target: CYP3A4 (Homo sapiens, UniProt P08684); assay: Human liver microsomal CYP3A4 enzyme inhibition; assay type: in vitro ADME; parameters: from tissue; host or cells: human liver microsomes; conditions: human liver microsomes, testosterone substrate
# CYP3A4, sequence (P08684 whole entry): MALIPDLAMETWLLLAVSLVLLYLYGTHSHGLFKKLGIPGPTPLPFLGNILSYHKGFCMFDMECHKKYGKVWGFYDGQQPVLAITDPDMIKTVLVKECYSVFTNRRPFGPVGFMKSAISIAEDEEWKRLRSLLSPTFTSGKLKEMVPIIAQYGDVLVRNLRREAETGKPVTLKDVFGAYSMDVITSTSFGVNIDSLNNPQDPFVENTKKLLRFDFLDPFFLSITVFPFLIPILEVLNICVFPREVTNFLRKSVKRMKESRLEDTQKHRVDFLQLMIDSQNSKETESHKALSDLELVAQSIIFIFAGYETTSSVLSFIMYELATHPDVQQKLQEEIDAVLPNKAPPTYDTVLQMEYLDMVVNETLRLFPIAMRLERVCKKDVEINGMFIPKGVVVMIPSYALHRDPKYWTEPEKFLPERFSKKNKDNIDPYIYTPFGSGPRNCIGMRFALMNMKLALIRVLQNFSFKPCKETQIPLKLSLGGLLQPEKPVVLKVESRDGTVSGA
# Experimental: The inhibitory effect of compound 9 on CYP3A4 was evaluated according to previous work. The experiments were performed in 96-well plates with a final incubation volume of 100 µL per well. A total of 20 µL of compound 9 was added to 96-well plates, with final concentrations of 0.25, 0.5, 1, 5, 10, and 50 µM. Then, 40 µL of human liver microsomes (final concentration of human liver microsomes was 0.2 mg/mL) and 20 µL of probe substrates (final concentration of testosterone was 20 μmol/L) in 0.1 M Tris (pH = 7.4) were added. After preincubation at 37 °C for 5 min, the reaction started with the addition of 20 µL of NADPH (final concentration is 1 mmol/L). Then, the plate was incubated at 37 °C for 5 min, and then 100 μL acetonitrile (with loratadine used as an internal standard) was added to terminate the reaction. After the reactions were completed, the plates were centrifuged and the supernatants were analyzed for the loratadine and probe substrates testosterone by LC-MS/MS.
structure (smiles),measurement,setting,value
"C=C[C@]1(C)C[C@@H](OC(=O)CNc2ccc(F)cc2)[C@]2(C)[C@H](C)CC[C@]3(CCC(=O)[C@H]32)[C@@H](C)[C@@H]1O [Compound 9, 22-(4-Fluoroanilineyl)-22-deoxypleuromutilin]",MBC,[1],0.5 µg/mL
same,MIC,[1],0.25 µg/mL
same,reduction of MRSA load in thigh compared with tiamulin,"[2]; 20 mg/kg each, difference to tiamulin group",~ 0.7 log10 CFU/mL
same,reduction of MRSA load in thigh,"[2]; 20 mg/kg intravenously, 24 h, compared to the no-drug control group",~ 1.3 log10 CFU/mL
same,IC50,[3],6.19 µM
same,IC50,[3]; converted with MW,6.19 µM
